# Data from publication PMC6990627 (ACS Omega, 2020).
# “And” between values parts separate entries of the source, which are not always exact repeats. Equal values may be shown once. Where a name gives a salt, the structure may show the parent alone. Read-outs that look alike come from different tables or passages of the source.
# What was measured:
# eqBChE [1] = target: T1, eqBChE (Equus caballus, UniProt P81908); experiment: Ellman assay, eqBChE inhibition; type: biochemical, equine; conditions: screened at 10 and 100 μM
# T1 sequence (P81908 whole entry): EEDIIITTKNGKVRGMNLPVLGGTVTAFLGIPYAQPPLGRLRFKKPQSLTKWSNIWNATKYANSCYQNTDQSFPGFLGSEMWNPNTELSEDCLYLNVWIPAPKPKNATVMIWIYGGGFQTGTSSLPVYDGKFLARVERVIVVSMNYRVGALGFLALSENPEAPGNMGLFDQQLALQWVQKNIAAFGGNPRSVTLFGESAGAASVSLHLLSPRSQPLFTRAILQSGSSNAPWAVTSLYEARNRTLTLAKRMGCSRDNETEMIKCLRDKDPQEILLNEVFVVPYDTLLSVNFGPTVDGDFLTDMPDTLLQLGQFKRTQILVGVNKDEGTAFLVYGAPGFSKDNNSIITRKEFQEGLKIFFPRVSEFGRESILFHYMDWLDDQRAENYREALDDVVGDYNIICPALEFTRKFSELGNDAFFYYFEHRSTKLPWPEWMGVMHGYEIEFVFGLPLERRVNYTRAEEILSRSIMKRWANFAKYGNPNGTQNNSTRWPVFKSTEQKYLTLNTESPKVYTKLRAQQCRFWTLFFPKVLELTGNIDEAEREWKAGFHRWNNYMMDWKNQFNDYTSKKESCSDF
# EeAChE = EeAChE (Electrophorus electricus, UniProt O42275); experiment: Ellman assay, EeAChE inhibition; type: biochemical; conditions: average of three determinations
# EeAChE, sequence (O42275 24-633): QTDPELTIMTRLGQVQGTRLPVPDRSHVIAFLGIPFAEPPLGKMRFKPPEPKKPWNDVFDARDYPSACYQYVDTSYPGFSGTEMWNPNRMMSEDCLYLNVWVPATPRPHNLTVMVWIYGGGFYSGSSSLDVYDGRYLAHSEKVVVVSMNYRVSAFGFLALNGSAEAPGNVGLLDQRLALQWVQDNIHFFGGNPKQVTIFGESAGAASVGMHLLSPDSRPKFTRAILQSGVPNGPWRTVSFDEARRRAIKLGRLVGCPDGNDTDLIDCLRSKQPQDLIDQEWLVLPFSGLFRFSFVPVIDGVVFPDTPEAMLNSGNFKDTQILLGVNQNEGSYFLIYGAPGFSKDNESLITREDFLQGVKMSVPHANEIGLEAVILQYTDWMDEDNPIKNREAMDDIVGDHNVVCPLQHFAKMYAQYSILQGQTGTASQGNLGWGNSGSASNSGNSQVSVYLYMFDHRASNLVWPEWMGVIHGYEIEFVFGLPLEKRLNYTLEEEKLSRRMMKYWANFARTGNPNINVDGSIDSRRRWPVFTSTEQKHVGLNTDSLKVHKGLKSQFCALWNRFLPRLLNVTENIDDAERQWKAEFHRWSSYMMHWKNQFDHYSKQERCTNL
# AChE = conditions: read-out: AChE IC50, cited from earlier work
# eqBChE [2] = target: T1, eqBChE; experiment: Enzyme kinetics; type: biochemical, equine; conditions: Lineweaver-Burk plot
Structure (SMILES),activity against BChE (in words) (eqBChE [1]),IC50 (EeAChE),IC50 (AChE; ref 19),"type of inhibition, eqBChE (eqBChE [2])",IC50 (AChE; ref 20)
COc1cc(O)c2c(c1)C(=O)c1cc(C)cc(O)c1C2=O [physcion],weakly active,12 µM and 12.2 µM,8.25 µM,–,–
"COc1cc2c(cc1OC)C(=O)C(CC1CCN(Cc3ccccc3)CC1)C2 (stereo not drawn) [donepezil HCl, donepezil hydrochloride]",–,–,–,noncompetitive,–
Cc1cc(O)c2c(c1)C(=O)c1cccc(O)c1C2=O [chrysophanol],weakly active,34 µM and 33.7 µM,68.6 µM,–,75.8 µM
Cc1cc(O)c2c(c1)C(=O)c1cc(O)cc(O)c1C2=O [emodin],weakly active,15 µM and 15.2 µM,9.17 µM,–,21.8 µM
